Structures can show the parent of a compound that is named as a salt.
Columns and labels:
Type in all cases: cell-based
[1] = target: T1, human EDG8 (S1PR5) receptor (Homo sapiens, UniProt Q9H228); experiment: Aequorin assay, agonist potency, CHO-A21-EDG8#12 cells; conditions: agonist mode, aequorin luminescence; read-out: S1P5 EC50 range #
T1 construct: carries the transgenes human EDG8 (S1PR5) receptor (Acession number NP_110387.1); expressed in transfected cells; host or cells: CHO-A21-EDG8#12 (CHO clone co-expressing mitochondrial aequorin and chimaeric Gaqi5)
Summary of the method: (§1)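 CHO cells coexpressing receptor, mitochondrial aequorin and Gαqi5 (S1P3 pool: GNA16) were loaded overnight at RT with 5 μM coelenterazine h in 0.1% fatty-acid-free BSA buffer. Cells were injected onto compound, luminescence recorded 90 s and integrated, normalised to digitonin or 20 μM ATP; sigmoidal fit.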

[2] = target: T2, human EDG1 (S1PR1) receptor (Homo sapiens, UniProt P21453); experiment: Aequorin assay, agonist potency, CHO-A21-Edg1#17 cells; conditions: agonist mode, aequorin luminescence; read-out: S1P1 EC50
T2 construct: expressed in transfected cells; host or cells: CHO-A21-Edg1#17 (CHO clone co-expressing mitochondrial aequorin and chimaeric Gaqi5)
Summary of the method: as §1

[3] = target: T3, human EDG3 (S1PR3) receptor (Homo sapiens, UniProt Q99500); experiment: Aequorin assay, agonist potency, CHO-A2-S1P3 Mix cells; conditions: agonist mode, aequorin luminescence
T3 construct: expressed in transfected cells; host or cells: CHO-A2-S1P3 Mix (CHO cell pool co-expressing mitochondrial aequorin and GNA16)
Experimental: Agonistic activity was measured as described below.
Cell clone CHO-A21-Edg1#17 carries the transgenes human EDG1 (S1PR1) receptor (Accession number NP_001391.2), mitochondrially targeted Aequorin (active part corresponds to accession number 1SL8_A) and chimaeric Gaqi5=Gaq modified with the 5 C-terminal amino-acids replaced with those of the Gai protein (DCGLF). CHO-A2-S1P3 Mix is a cell pool ectopically expressing human EDG3 (S1PR3) receptor (Accession number NP_005217.2) mitochondrially targeted Aequorin (active part has a sequence similar to accession number AY601106.1) and GNA16 (Accession number NP_002059.3). Cell clone CHO-A21-EDG8#12 carries the transgenes human EDG8 (S1PR5) receptor (Acession number NP_110387.1), mitochondrially expressed Aequorin (active part corresponds to accession number 1SL8_A) and chimaeric Gaqi5 (Gaq modified to present the 5 last amino-acids of the Gai protein “DCGLF”; see above). Cells are grown to mid-log phase in culture medium (HAM's F12, 10% FBS, 100 IU/mL penicillin, 100 μg/mL streptomycin, 250 μg/mL Zeocin, 400 μg/mL G418). 18 hours prior to frozen cells preparation, the medium is changed to remove the antibiotics.
18 hours prior to the test, vials of frozen cells are quickly thawed in a 37° C. water bath, cells are recovered by centrifugation and resuspended in assay buffer (DMEM/HAM's F12 with HEPES, without phenol red+0.1% fatty acid-free BSA). Cells are gently agitated in suspension overnight at RT in presence of 5 μM of Coelenterazine h (Molecular Probes). On the day of the test, cells are diluted to their final working concentrations in assay buffer and agitated in suspension for 1 h at RT. Cells are then placed in the luminescence reader (Hamamatsu Functional Drug Screening System 6000, FDSS6000). During cells incubation, compounds are prepared in 100% DMSO, and subsequently diluted in assay buffer. Compounds are then dispensed in the assay plate (black, clear-bottom, 384-well plate). After binding of agonists to the human S1P receptor the intracellular calcium concentration increases and binding of calcium to the Aequorin/Coelenterazine complex leads to an oxidation reaction of coelenterazine, which results in the production of Aequorin, coelenteramide, CO2 and light (Dmax 469 nm). The luminescent response is dependent on the agonist concentration. For agonist testing, 30 μL of cell suspension are injected on 30 μL of test compound or reference agonist in the assay plate. The resulting emission of light is recorded for 90 seconds using the FDSS6000. Dose response curves with the reference compounds are performed before testing the compounds. S1P is the reference agonist and JTE-013 the reference antagonist for S1P2.
Luminescence data are integrated over the reading interval for agonist and antagonist modes. To standardize the emission of recorded light (determination of the “100% signal”) across plates and across different experiments, some of the wells contain 100 μM digitonin or a saturating concentration of ATP (20 μM). Plates also contain the reference agonist at a concentration equivalent to the EC80 obtained during the test validation and the EC100. Dose-response data from test compounds were analyzed with XLfit (IDBS) software using nonlinear regression applied to a sigmoidal dose-response model and the following equation: […]

S1P4 = target: T4, S1P4 (Homo sapiens, UniProt O95977); experiment: Aequorin assay, agonist potency, S1P4; conditions: agonist mode, aequorin luminescence
T4 sequence (O95977 1-384): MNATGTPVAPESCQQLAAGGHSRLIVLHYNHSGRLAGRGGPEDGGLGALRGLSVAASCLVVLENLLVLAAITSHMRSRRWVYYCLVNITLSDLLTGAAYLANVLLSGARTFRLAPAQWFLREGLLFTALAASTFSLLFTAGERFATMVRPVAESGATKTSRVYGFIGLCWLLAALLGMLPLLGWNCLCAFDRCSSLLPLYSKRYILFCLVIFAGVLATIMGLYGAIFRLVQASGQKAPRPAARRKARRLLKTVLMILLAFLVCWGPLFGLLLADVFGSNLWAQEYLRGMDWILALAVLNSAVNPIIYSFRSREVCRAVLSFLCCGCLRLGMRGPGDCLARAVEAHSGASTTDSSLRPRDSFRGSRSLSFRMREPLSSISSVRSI
Summary of the method: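 Aequorin luminescence read over 90 s after adding coelenterazine h–loaded cells (5 μM, overnight, RT) to test compound in phenol red-free DMEM/F12 buffer containing 0.1% fatty acid-free BSA. Responses integrated, scaled to the 100% signal from 100 μM digitonin or 20 μM ATP, and fitted to a sigmoidal dose-response model.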

T3 sequence (Q99500 whole entry): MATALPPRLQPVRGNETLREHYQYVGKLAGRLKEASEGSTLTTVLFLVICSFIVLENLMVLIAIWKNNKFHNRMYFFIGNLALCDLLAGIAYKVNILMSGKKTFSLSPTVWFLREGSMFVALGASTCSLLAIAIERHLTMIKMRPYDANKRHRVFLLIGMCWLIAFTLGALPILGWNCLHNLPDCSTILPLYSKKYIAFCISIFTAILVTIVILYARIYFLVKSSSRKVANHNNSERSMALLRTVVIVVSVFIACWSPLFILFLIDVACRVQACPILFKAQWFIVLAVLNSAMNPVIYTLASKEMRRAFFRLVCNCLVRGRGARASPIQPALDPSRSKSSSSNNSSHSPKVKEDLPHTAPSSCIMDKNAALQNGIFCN
T1 sequence (Q9H228 whole entry): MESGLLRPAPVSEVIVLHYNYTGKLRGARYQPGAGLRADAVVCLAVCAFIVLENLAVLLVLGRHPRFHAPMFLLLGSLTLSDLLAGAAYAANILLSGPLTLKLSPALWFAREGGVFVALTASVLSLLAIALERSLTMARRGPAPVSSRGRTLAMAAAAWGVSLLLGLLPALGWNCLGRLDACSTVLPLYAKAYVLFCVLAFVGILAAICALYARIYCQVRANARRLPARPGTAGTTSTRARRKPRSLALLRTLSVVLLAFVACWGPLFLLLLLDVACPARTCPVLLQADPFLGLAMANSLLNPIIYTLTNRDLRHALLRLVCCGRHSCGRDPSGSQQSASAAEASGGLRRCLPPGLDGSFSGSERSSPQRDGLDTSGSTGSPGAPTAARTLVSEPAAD
T2 sequence (P21453 whole entry): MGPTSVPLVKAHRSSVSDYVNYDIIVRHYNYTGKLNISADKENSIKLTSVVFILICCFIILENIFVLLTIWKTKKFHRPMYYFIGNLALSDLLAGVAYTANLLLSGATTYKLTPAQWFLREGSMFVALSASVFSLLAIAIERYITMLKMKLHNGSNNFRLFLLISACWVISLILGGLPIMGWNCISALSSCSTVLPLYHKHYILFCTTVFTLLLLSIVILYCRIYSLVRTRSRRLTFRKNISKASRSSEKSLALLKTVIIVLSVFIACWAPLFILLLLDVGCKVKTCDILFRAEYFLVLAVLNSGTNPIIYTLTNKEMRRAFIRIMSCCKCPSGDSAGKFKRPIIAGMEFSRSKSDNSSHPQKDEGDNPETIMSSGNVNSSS

Compound	EC50 [1] [µM]	EC50 [2] [µM]	EC50 [3] [µM]	EC50 (S1P4) [µM]
O=C(O)C1(CN2CC3(Cc4ccc(OCc5ccccc5)cc4C3)C2)CC1 [Example 29, 1-((5′-(benzyloxy)-1′,3′-dihydrospiro[azetidine-3,2′-inden]-1-yl)methyl)cyclopropanecarboxylic acid]	1 to 10	> 1	> 1	> 1
O=C(O)C1(CN2CC3(Cc4ccc(-c5ccc(OCc6cccc(F)c6)cc5)cc4C3)C2)CC1 [Example 50, 1-((5′-(4-((3-fluorobenzyl)oxy)phenyl)-1′,3′-dihydrospiro[azetidine-3,2′-inden]-1-yl)methyl)cyclopropanecarboxylic acid]	≤ 0.01	> 1	> 1	< 1
O=C(O)C1(CN2CC3(Cc4ccc(-c5ccc(OCC6CCCCC6)cc5)cc4C3)C2)CC1 [Example 51, 1-((5′-(4-(cyclohexylmethoxy)phenyl)-1′,3′-dihydrospiro[azetidine-3,2′-inden]-1-yl)methyl)cyclopropanecarboxylic acid]	0.01 to 0.1	> 1	> 1	> 1
O=C(O)C1(CN2CC3(Cc4ccc(-c5ccc(OCc6cccc(Cl)c6)cc5)cc4C3)C2)CC1 [Example 52, 1-((5′-(4-((3-chlorobenzyl)oxy)phenyl)-1′,3′-dihydrospiro[azetidine-3,2′-inden]-1-yl)methyl)cyclopropanecarboxylic acid]	0.01 to 0.1	> 1	> 1	< 1
O=C(O)CN1CC2(Cc3ccc(OCCc4ccccc4C(F)(F)F)cc3C2)C1 [Example 62]	≤ 0.01	> 1	> 1	< 1
O=C(O)CN1CC2(Cc3ccc(OCCc4c(Cl)cccc4Cl)cc3C2)C1 [Example 63, 2-(5′-(2,6-dichlorophenethoxy)-1′,3′-dihydrospiro[azetidine-3,2′-inden]-1-yl)acetic acid]	≤ 0.01	> 1	> 1	< 1
O=C(O)CN1CC2(Cc3ccc(OCc4c(Cl)cccc4Cl)cc3C2)C1 [Example 109, 2-(5′-((2,6-dichlorobenzyl)oxy)-1′,3′-dihydrospiro[azetidine-3,2′-inden]-1-yl)acetic acid]	≤ 0.01	> 1	> 1	< 1
O=C(O)CN1CC2(Cc3ccc(OCc4ccccc4C4CC4)cc3C2)C1 [Example 111, 2-(5′-((2-cyclopropylbenzyl)oxy)-1′,3′-dihydrospiro[azetidine-3,2′-inden]-1-yl)acetic acid]	≤ 0.01	> 1	> 1	< 1
CCc1cccc(F)c1COc1ccc2c(c1)CC1(CCN(CC(=O)O)CC1)C2 [Example 159, 2-(5-((2-ethyl-6-fluorobenzyl)oxy)-1,3-dihydrospiro[indene-2,4′-piperidin]-1′-yl)acetic acid hydrochloride]	≤ 0.01	> 1	> 1	< 1
O=C(O)CN1CCC2(CC1)Cc1ccc(OCc3c(Cl)cccc3Cl)cc1C2 [Example 160, 2-(5-((2,6-dichlorobenzyl)oxy)-1,3-dihydrospiro[indene-2,4′-piperidin]-1′-yl)acetic acid]	≤ 0.01	> 1	> 1	< 1

The remaining lines, values ahead:

EC50 [1] [µM]	EC50 [2] [µM]	EC50 [3] [µM]	EC50 (S1P4) [µM]	Compound
≤ 0.01	> 1	> 1	< 1	Cc1cccc(C)c1COc1ccc2c(c1)CC1(C2)CN(CC2(C(=O)O)CC2)C1 [Example 39, 1-((5′-((2,6-dimethylbenzyl)oxy)-1′,3′-dihydrospiro[azetidine-3,2′-inden]-1-yl)methyl)cyclopropanecarboxylic acid compound with 2,2,2-trifluoroacetic acid (1:1)]
≤ 0.01	> 1	> 1	< 1	O=C(O)C1(CN2CC3(Cc4ccc(OCc5c(Cl)cccc5C5CC5)cc4C3)C2)CC1 [Example 44, 1-((5′-((2-chloro-6-cyclopropylbenzyl)oxy)-1′,3′-dihydrospiro[azetidine-3,2′-inden]-1-yl)methyl)cyclopropanecarboxylic acid compound with acetic acid (1:1)]
0.01 to 0.1	> 1	> 1	< 1	O=C(O)C1(CN2CC3(Cc4ccc(OCc5cccc(Cl)c5)cc4C3)C2)CC1 [Example 45, 1-((5′-((3-chlorobenzyl)oxy)-1′,3′-dihydrospiro[azetidine-3,2′-inden]-1-yl)methyl)cyclopropanecarboxylic acid]
≤ 0.01	> 1	> 1	< 1	O=C(O)C1(CN2CC3(Cc4ccc(OCc5c(Cl)cccc5Cl)cc4C3)C2)CC1 [Example 46, 1-((5′-((2,6-dichlorobenzyl)oxy)-1′,3′-dihydrospiro[azetidine-3,2′-inden]-1-yl)methyl)cyclopropanecarboxylic acid]
≤ 0.01	> 1	> 1	< 1	O=C(O)C1(CN2CC3(Cc4ccc(OCCc5c(Cl)cccc5Cl)cc4C3)C2)CC1 [Example 59, 1-((5′-(2,6-dichlorophenethoxy)-1′,3′-dihydrospiro[azetidine-3,2′-inden]-1-yl)methyl)cyclopropanecarboxylic acid]
0.01 to 0.1	> 1	> 1	> 1	O=C(O)C1(CN2CC3(Cc4ccc(-c5ccc(OCc6ccc(Cl)cc6)cc5)cc4C3)C2)CC1 [Example 108, 1-((5′-(4-((4-chlorobenzyl)oxy)phenyl)-1′,3′-dihydrospiro[azetidine-3,2′-inden]-1-yl)methyl)cyclopropanecarboxylic acid]
≤ 0.01	> 1	> 1	< 1	O=C(O)CN1CC2(Cc3ccc(OCc4c(F)cccc4C4CC4)cc3C2)C1 [Example 110, 2-(5′-((2-cyclopropyl-6-fluorobenzyl)oxy)-1′,3′-dihydrospiro[azetidine-3,2′-inden]-1-yl)acetic acid]

Reference: US20200055817A1 (AbbVie Deutschland GmbH & Co. KG, priority 2016, published 2020)
